From US10336739B2, “4-hydroxy-3-(heteroaryl)pyridine-2-one APJ agonists” (BRISTOL-MYERS SQUIBB COMPANY, priority 2015, dated 2019) come the findings set out here.

The target in the test is human APJ receptor (Homo sapiens (Human), UniProt P35414). Put plainly: Intracellular cAMP accumulation assay (APJ hcAMP, HTRF). The test is classed as cell-based. As to conditions: HEK293 cells stably expressing human APJ receptor; inhibition of forskolin-mediated cAMP production; read-out: hAPJ cAMP EC50 Potency range. The procedure: Intracellular cAMP Accumulation Assay
Chain of human APJ receptor (P35414 whole entry): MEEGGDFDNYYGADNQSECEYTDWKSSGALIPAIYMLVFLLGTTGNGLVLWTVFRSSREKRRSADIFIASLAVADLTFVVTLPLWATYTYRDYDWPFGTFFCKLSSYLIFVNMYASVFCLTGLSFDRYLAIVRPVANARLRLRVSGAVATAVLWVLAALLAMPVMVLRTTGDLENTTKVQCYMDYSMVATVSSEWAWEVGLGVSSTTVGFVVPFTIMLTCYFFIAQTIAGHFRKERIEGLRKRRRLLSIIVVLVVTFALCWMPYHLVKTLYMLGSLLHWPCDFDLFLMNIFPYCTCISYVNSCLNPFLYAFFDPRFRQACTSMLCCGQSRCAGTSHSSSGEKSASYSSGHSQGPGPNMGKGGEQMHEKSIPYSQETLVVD
HEK293 cells stably expressing human APJ receptor were used to assess the activity of compounds. Cultured cells were detached and resuspended in the cAMP Homogeneous Time-Resolved Fluorescence (HTRF) assay buffer (Cisbio cat; #62AM4PEJ). The assay was performed in 384-well assay plates (Perkin-Elmer; cat #6008289) according to assay protocol provided by the manufacturer. Serial dilutions of a compound together with assay buffer containing […] and 2 μM forskolin were added to each well containing 5,000 cells and incubated for 30 minutes at room temperature. Subsequently, cAMP D2 reagent was added in the lysis buffer followed by the EuK antibody (Cisbio; cat #62AM4PEJ) and incubated for 60 min. The fluorescence emission ratio was measured using fluorometer. The intracellular cAMP concentrations (compound-stimulated inhibition of forskolin-mediated cAMP production) were calculated by extrapolation from a standard curve using known cAMP concentrations. The EC50 values were obtained by fitting the data to a sigmoidal concentration-response curve with variable slope.
Background: cAMP levels reflect the balance of adenylyl cyclase and phosphodiesterase activity.
Usually EC50 stands for the concentration that produces a half-maximal response. `C=CCCc1nc(O)c(-c2nnc(Cc3noc4ccccc34)o2)c(O)c1-c1c(OC)cccc1OC` [Example 27, 3-[5-(1,2-benzoxazol-3-ylmethyl)-1,3,4-oxadiazol-2-yl]-6-(but-3-en-1-yl)-5-(2,6-dimethoxyphenyl) pyridine-2,4-diol]: the EC50 was in the range of 0.01 to 10 nM.

Consider `CCCCc1nc(O)c(-c2nnc(CCc3ncc(-c4ccccc4)o3)o2)c(O)c1-c1c(OC)cccc1OC` [Example 28, 6-butyl-5-(2,6-dimethoxyphenyl)-3-{5-[2-(5-phenyl-1,3-oxazol-2-yl)ethyl]-1,3,4-oxadiazol-2-yl}pyridine-2,4-diol], for which the EC50 lay in the range of 10 to 100 nM.

On to `CCCCc1nc(O)c(-c2nnc(CCc3nccn3C)o2)c(O)c1-c1c(OC)cccc1OC` [Example 29, 6-butyl-5-(2,6-dimethoxyphenyl)-3-{5-[2-(1-methyl-1H-imidazol-2-yl)ethyl]-1,3,4-oxadiazol-2-yl}pyridine-2,4-diol], for which the concentration for a half-maximal effect (EC50) lay within 0.01 to 10 nM.

`CCCCc1nc(O)c(-c2nnc(Cc3ccc(Cl)nc3)o2)c(O)c1-c1c(OC)cccc1OC` [Example 30, 6-butyl-3-{5-[(6-chloropyridin-3-yl)methyl]-1,3,4-oxadiazol-2-yl}-5-(2,6-dimethoxyphenyl) pyridine-2,4-diol]: the half-maximal effective concentration (EC50) lay within 0.01 to 10 nM.

With `CCCCc1nc(O)c(-c2nnc(C(C)(C)c3ccc(Cl)cc3)o2)c(O)c1-c1c(OC)cccc1OC` [Example 31, 6-butyl-3-{5-[2-(4-chlorophenyl)propan-2-yl]-1,3,4-oxadiazol-2-yl}-5-(2,6-dimethoxyphenyl) pyridine-2,4-diol], the EC50 fell in the range of 0.01 to 10 nM.

Turning to `CCCCc1nc(O)c(-c2nnc(Cc3ccc(F)cc3)o2)c(O)c1-c1c(OC)cccc1OC` [Example 32, 6-butyl-5-(2,6-dimethoxyphenyl)-3-{5-[(4-fluorophenyl)methyl]-1,3,4-oxadiazol-2-yl}pyridine-2,4-diol], the EC50 is 0.01 to 10 nM.

With `CCCCc1nc(O)c(-c2nnc(Cc3ccc(Cl)c(Cl)c3)o2)c(O)c1-c1c(OC)cccc1OC` [Example 33, 6-butyl-3-{5-[(3,4-dichlorophenyl)methyl]-1,3,4-oxadiazol-2-yl}-5-(2,6-dimethoxyphenyl) pyridine-2,4-diol], the EC50 fell in the range of 0.01 to 10 nM.

Take `CCCCc1nc(O)c(-c2nnc(Cc3ccc(F)c(C(F)(F)F)c3)o2)c(O)c1-c1c(OC)cccc1OC` [Example 34, 6-butyl-5-(2,6-dimethoxyphenyl)-3-(5-{[4-fluoro-3-(trifluoromethyl)phenyl]methyl}-1,3,4-oxadiazol-2-yl)pyridine-2,4-diol]: the EC50 is 10 to 100 nM.

On to `CCCCc1nc(O)c(-c2nnc(Cc3ccc(Cl)cc3Cl)o2)c(O)c1-c1c(OC)cccc1OC` [Example 35, 6-butyl-3-{5-[(2,4-dichlorophenyl)methyl]-1,3,4-oxadiazol-2-yl}-5-(2,6-dimethoxyphenyl) pyridine-2,4-diol], for which the concentration giving a half-maximal response (EC50) lay in the range of 0.01 to 10 nM.

With `CCCCc1nc(O)c(-c2nnc(Cc3c(C)n[nH]c3C)o2)c(O)c1-c1c(OC)cccc1OC` [Example 36, 6-butyl-5-(2,6-dimethoxyphenyl)-3-{5-[(3,5-dimethyl-1H-pyrazol-4-yl)methyl]-1,3,4-oxadiazol-2-yl}pyridine-2,4-diol], the EC50 fell in the range of 10 to 100 nM.

Regarding `CCCCc1nc(O)c(-c2nnc(Cc3ccc(C#N)cc3)o2)c(O)c1-c1c(OC)cccc1OC` [Example 37, 4-({5-[6-butyl-5-(2,6-dimethoxyphenyl)-2,4-dihydroxypyridin-3-yl]-1,3,4-oxadiazol-2-yl}methyl) benzonitrile], the half-maximal effective concentration (EC50) was 0.01 to 10 nM.

For `CCCCc1nc(O)c(-c2nnc(Cc3ccc(F)c(F)c3)o2)c(O)c1-c1c(OC)cccc1OC` [Example 38, 6-butyl-3-{5-[(3,4-difluorophenyl)methyl]-1,3,4-oxadiazol-2-yl}-5-(2,6-dimethoxyphenyl) pyridine-2,4-diol], the EC50 was in the range of 0.01 to 10 nM.

Turning to `CCCCc1nc(O)c(-c2nnc(Cc3csc(-c4ccc(Cl)cc4)n3)o2)c(O)c1-c1c(OC)cccc1OC` [Example 39, 6-butyl-3-(5-{[2-(4-chlorophenyl)-1,3-thiazol-4-yl]methyl}-1,3,4-oxadiazol-2-yl)-5-(2,6-dimethoxyphenyl) pyridine-2,4-diol], the EC50 was in the range of 10 to 100 nM.

With `CCCCc1nc(O)c(-c2nnc(C(C)c3ccc(Cl)cc3)o2)c(O)c1-c1c(OC)cccc1OC` (stereo not drawn) [Example 40, 6-butyl-3-{5-[1-(4-chlorophenyl)ethyl]-1,3,4-oxadiazol-2-yl}-5-(2,6-dimethoxyphenyl) pyridine-2,4-diol], the EC50 lay in the range of 0.01 to 10 nM.

On to `CCCCc1nc(O)c(-c2nnc(Cc3nonc3C)o2)c(O)c1-c1c(OC)cccc1OC` [Example 41, 6-butyl-5-(2,6-dimethoxyphenyl)-3-{5-[(4-methyl-1,2,5-oxadiazol-3-yl)methyl]-1,3,4-oxadiazol-2-yl}pyridine-2,4-diol], for which the half-maximal effective concentration (EC50) was in the range of 0.01 to 10 nM.

On to `CCCCc1nc(O)c(-c2nnc(COc3ccc(F)cc3)o2)c(O)c1-c1c(OC)cccc1OC` [Example 42, 6-butyl-5-(2,6-dimethoxyphenyl)-3-[5-(4-fluoro-phenoxymethyl)-1,3,4-oxadiazol-2-yl]pyridine-2,4-diol], for which the EC50 fell in the range of 10 to 100 nM.

Consider `CCCCc1nc(O)c(-c2nnc(Cc3n[nH]c4ccccc34)o2)c(O)c1-c1c(OC)cccc1OC` [Example 43, 6-butyl-5-(2,6-dimethoxyphenyl)-3-[5-(1H-indazol-3-ylmethyl)-1,3,4-oxadiazol-2-yl]pyridine-2,4-diol], for which the EC50 fell in the range of 0.01 to 10 nM.

For `CCCCc1nc(O)c(-c2nnc(Cc3n[nH]c(=O)c4ccccc34)o2)c(O)c1-c1c(OC)cccc1OC` [Example 44, 4-({5-[6-butyl-5-(2,6-dimethoxyphenyl)-2,4-dihydroxypyridin-3-yl]-1,3,4-oxadiazol-2-yl}methyl)-1,2-dihydrophthalazin-1-one], the EC50 fell in the range of 10 to 100 nM.

As to `CCCCc1nc(O)c(-c2nnc(C(OC)c3ccccc3)o2)c(O)c1-c1c(OC)cccc1OC` (stereo not drawn) [Example 45, 6-butyl-5-(2,6-dimethoxyphenyl)-3-{5-[methoxy(phenyl)methyl]-1,3,4-oxadiazol-2-yl}pyridine-2,4-diol], the EC50 is 10 to 100 nM.

As to `CCCCc1nc(O)c(-c2nnc(Cc3csc(-c4ccccc4)n3)o2)c(O)c1-c1c(OC)cccc1OC` [Example 46, 6-butyl-5-(2,6-dimethoxyphenyl)-3-{5-[(2-phenyl-1,3-thiazol-4-yl)methyl]-1,3,4-oxadiazol-2-yl}pyridine-2,4-diol], the EC50 was 0.01 to 10 nM.

For the molecule `CCCCc1nc(O)c(-c2nnc(CCc3nc4ccccc4o3)o2)c(O)c1-c1c(OC)cccc1OC` [Example 47, 3-{5-[2-(1,3-benzoxazol-2-yl)ethyl]-1,3,4-oxadiazol-2-yl}-6-butyl-5-(2,6-dimethoxyphenyl) pyridine-2,4-diol], the EC50 is 0.01 to 10 nM.

`CCCCc1nc(O)c(-c2nnc(Cc3ccc(F)c(OC)c3)o2)c(O)c1-c1c(OC)cccc1OC` [Example 48, 6-butyl-5-(2,6-dimethoxyphenyl)-3-{5-[(4-fluoro-3-methoxyphenyl)methyl]-1,3,4-oxadiazol-2-yl}pyridine-2,4-diol]: the half-maximal effective concentration (EC50) lay within 0.01 to 10 nM.

In the case of `CCCCc1nc(O)c(-c2nnc(Cc3cncs3)o2)c(O)c1-c1c(OC)cccc1OC` [Example 49], the EC50 was 100 to 300 nM.

As to `CCCCc1nc(O)c(-c2nnc(COc3ccc(Cl)c(Cl)c3)o2)c(O)c1-c1c(OC)cccc1OC` [Example 50, 6-butyl-3-[5-(3,4-dichlorophenoxy-methyl)-1,3,4-oxadiazol-2-yl]-5-(2,6-dimethoxyphenyl) pyridine-2,4-diol], the 50% effective concentration (EC50) lay in the range of 10 to 100 nM.

As for `CCCCc1nc(O)c(-c2nnc(Cc3cc(C)no3)o2)c(O)c1-c1c(OC)cccc1OC` [Example 51, 6-butyl-5-(2,6-dimethoxyphenyl)-3-{5-[(3-methyl-1,2-oxazol-5-yl)methyl]-1,3,4-oxadiazol-2-yl}pyridine-2,4-diol], the EC50 was in the range of 0.01 to 10 nM.

Turning to `CCCCc1nc(O)c(-c2nnc(CCc3nc(-c4cnccn4)no3)o2)c(O)c1-c1c(OC)cccc1OC` [Example 52, 6-butyl-5-(2,6-dimethoxyphenyl)-3-(5-{2-[3-(pyrazin-2-yl)-1,2,4-oxadiazol-5-yl]ethyl}-1,3,4-oxadiazol-2-yl)pyridine-2,4-diol], the EC50 fell in the range of 0.01 to 10 nM.

For `CCCCc1nc(O)c(-c2nnc(COc3ccc(Cl)cc3)o2)c(O)c1-c1c(OC)cccc1OC` [Example 53, 6-butyl-3-[5-(4-chlorophenoxy-methyl)-1,3,4-oxadiazol-2-yl]-5-(2,6-dimethoxyphenyl) pyridine-2,4-diol], the EC50 lay within 10 to 100 nM.

As for `CCCCc1nc(O)c(-c2nnc(CC(C)(C)c3ccc(Cl)cc3)o2)c(O)c1-c1c(OC)cccc1OC` [Example 54, 6-butyl-3-{5-[2-(4-chlorophenyl)-2-methylpropyl]-1,3,4-oxadiazol-2-yl}-5-(2,6-dimethoxyphenyl) pyridine-2,4-diol], the concentration giving a half-maximal response (EC50) fell in the range of 0.01 to 10 nM.

In the case of `CCCCc1nc(O)c(-c2nnc(Cc3nc(-c4ccccn4)no3)o2)c(O)c1-c1c(OC)cccc1OC` [Example 55, 6-butyl-5-(2,6-dimethoxyphenyl)-3-(5-{[3-(pyridin-2-yl)-1,2,4-oxadiazol-5-yl]methyl}-1,3,4-oxadiazol-2-yl)pyridine-2,4-diol], the EC50 was 0.01 to 10 nM.

As to `CCCCc1nc(O)c(-c2nnc(Cc3ccc(OC(F)(F)F)cc3)o2)c(O)c1-c1c(OC)cccc1OC` [Example 56, 6-butyl-5-(2,6-dimethoxyphenyl)-3-(5-{[4-(trifluoromethoxy)phenyl]methyl}-1,3,4-oxadiazol-2-yl)pyridine-2,4-diol], the half-maximal effective concentration (EC50) lay in the range of 0.01 to 10 nM.
